79 compounds from publication PMC12040169 (PLOS Biology, 2025) can be followed below.

Structures are written as SMILES.

The nature of this data set: in vitro. The note with it: human, hela cells, % viability.

What is called viability is a read-out of living cells in per cent, often relative to untreated cells. Take `N#Cc1ccc(N2CCCC(N3CCNC3=O)C2)c(C(F)(F)F)c1` (stereo not shown) [CBK305162]: the viability at 28.5 h, 10 µM came out at 84.9%.

Consider `CSCCC(NC(=O)c1ccc(C#CC(C)(C)O)cc1)C(=O)O` (stereo not shown) [CBK276698], for which the viability at 28.5 h, 10 µM worked out at 93.9%. Same read-out and setting: in the case of `Cc1nc2c(c(=O)[nH]1)CN(Cc1cc(F)ccc1F)CC2` [CBK283953] it was 86.9%.

In the case of `CCc1nc2ccc(C(=O)NCc3cccs3)cn2c1N(C)CC` [CBK145492], the viability at 28.5 h, 10 µM worked out at 108%. Same read-out and setting: under `Cc1cc([N+](=O)[O-])nn1CCCC(=O)Nc1cccc(O)c1` [CBK268747] stands 87.1%; under `COc1ccccc1Nc1nc(N)nc(CSc2nc3ccccc3s2)n1` [CBK266747], 95.7%; under `CCn1c(/C=C/C2=CCN(C)CC2)nc2ccccc21` [CBK283745], 91.8%. On the same count and under the same terms, in the case of `COc1cccc(CCN2C(=O)CC3(C2=O)C(=O)N(C)c2ccc(OC)cc23)c1` (stereo not shown) [CBK075191] it was 94.6%; in that of `COc1nc(OCCNS(=O)(=O)c2ccc(C)cc2)nc(N(C)C)n1` [CBK266752], 117%. Same read-out and setting: under `CSc1ccccc1CNC(=O)c1ccc(C)nc1N1CCOCC1` [CBK106224] stands 91.9%; under `CC(=O)Nc1ccc(CNC(=O)c2cccnc2OCC(F)(F)F)cc1` [CBK305682], 91.5%.

Turning to `O=C(Nc1cccc(OC(=O)c2cccc(S(=O)(=O)N3CCOCC3)c2)c1)c1ccccc1` [CBK261365], the viability at 28.5 h, 10 µM stood at 85.5%. On the same count and under the same terms, in the case of `CC(C)(C)NS(=O)(=O)c1ccc(NC(=O)COc2ccc3ccccc3c2Br)cc1` [CBK267015] it was 96.5%.

`Cc1cccc(C(C)NC(=O)C2(Cn3ccnc3)CC2)n1` (stereo not shown) [CBK306944]: the viability at 28.5 h, 10 µM is 86.4%. Still for that read-out and setting: under `O=C1CC(C(=O)Nc2c(Cl)cccc2Cl)C2(CCCCC2)O1` (stereo not shown) [CBK058445] stands 95.9%. Same read-out and setting: under `COC(=O)[C@@H](C)NC(=O)[C@@H]1CN(C(=O)c2cccc(F)c2)CCN1S(C)(=O)=O` [CBK289625] stands 96.8%; under `COc1ccccc1C(NC(=O)C1CCN(C(=O)c2cccc(Cl)c2)CC1)c1ccccn1` (stereo not shown) [CBK059637], 90.3%; under `COc1cccc(OCCO)c1` [CBK000514], 93.1%.

For `CSc1cc(C)c2c(c1)COC1(CCN(C(=O)COCC(=O)O)CC1)O2` [CBK060839], the viability at 28.5 h, 10 µM (bulk resorufin, single well) stood at 94.1%.

In the case of `Cc1cc(COc2cc(C(F)(F)F)ccn2)no1` [CBK115787], the viability at 28.5 h, 10 µM turned out to be 134%.

Take `O=C1NCCCC12CCN(Cc1ccc(F)cc1)CC2` [CBK285345]: the viability at 28.5 h, 10 µM was found to be 83.1%. Regarding `CCOc1cc(OCC)cc(C(=O)N2CCC3(CC2)CC(=O)c2cc(OCCN(C)C)ccc2O3)c1` [CBK169003T], the viability at 28.5 h, 10 µM is 89.3%. As to `COc1ccc(Cl)cc1NC(=O)CC1NC2CCCCC2NC1=O` (stereo not shown) [CBK267318], the viability at 28.5 h, 10 µM is 80.4%.

For `O=c1c(-c2ccccc2)c(O)cc(-c2ccccc2)n1Cc1ccccc1` [CBK291188], the viability at 28.5 h, 10 µM turned out to be 115%. On the same count and under the same terms, in the case of `Cc1cccc(N2CCN(C(=O)C3C4CCC(O4)C3C(=O)O)CC2)c1C` (stereo not shown) [CBK287044] it was 90%; in that of `CCN1C(=O)CC2(C1=O)C(=O)N(Cc1nnc(-c3ccc(C)cc3)o1)c1ccc(OC)cc12` (stereo not shown) [CBK075586], 90.4%. Turning to `Cc1cc(C)n(C2CCN(Cc3ccc4ccccc4n3)CC2)n1` [CBK281622], the viability at 28.5 h, 10 µM is 87.9%. Same read-out and setting: under `Cc1ccc(NS(=O)(=O)c2ccc(CCC(=O)N3CCc4ccccc4C3)cc2)cc1` [CBK267616] stands 94.9%. Still for that read-out and setting: under `CSc1ncc(CNC(=O)Nc2ccc3c(c2)CCC3)n1C` [CBK306996] stands 107%; under `Cc1cc(NC(=O)c2ccc3c(c2)C(=O)N(CC2CCCO2)C3=O)no1` (stereo not shown) [CBK072998], 90.2%. The same measure, in the same setting: under `Cc1csc(NC(=O)c2c(C)c(C)n[nH]c2=O)n1` [CBK297759] stands 84.4%; under `CCOC(=O)c1c(NC(=O)c2cc(-c3ccc(Cl)s3)nc3ccccc23)sc(C)c1CC` [CBK262657], 107%. Take `CC(=O)c1cccc(NC(=O)C2CCCN(S(=O)(=O)c3ccc(Cl)cc3)C2)c1` (stereo not shown) [CBK266847]: the viability at 28.5 h, 10 µM stood at 102%. On to `CCC(C)NC(=O)C(Cc1ccc([N+](=O)[O-])cc1)N1C(=O)c2ccccc2C1=O` (stereo not shown) [CBK261278], for which the viability at 28.5 h, 10 µM turned out to be 105%.

Turning to `Cc1ccc(S(=O)(=O)N2CCOCC2)cc1-c1cnc(N)c(-c2ccc(O)cc2)n1` [CBK122519], the viability at 28.5 h, 10 µM came to 98.7%. On the same count and under the same terms, under `O=C(c1c[nH]c2ccccc12)C(F)(F)C(F)(F)F` [CBK007222] stands 101%. Turning to `Cc1nn(C(C)CC(=O)NCCN2CCc3ccccc32)c(C)c1C` (stereo not shown) [CBK282675], the viability at 28.5 h, 10 µM came out at 87.1%. On the same count and under the same terms, under `CC1=C[C@@H](CNC(=O)c2ccncc2)[C@H](C(C)C)C[C@H]1CC(=O)N1CCOCC1` [CBK289052] stands 80.2%. Same read-out and setting: under `CN1CC(=O)N(CC(=O)N2CC=C(c3ccccc3)CC2)c2ccccc2C1=O` [CBK294433] stands 88%; under `O=C(COc1ccc(F)cc1)N1CCCC1c1cccc(Cc2ccc(F)cc2)n1` (stereo not shown) [CBK286235], 99.3%; under `O=C1NC2=C(C(=O)N(CCN3CCCC3)C2)C(c2cccc(F)c2)N1` (stereo not shown) [CBK282365], 105%. Still for that read-out and setting: under `NC1CCC(N(CCc2ccccc2)C(=O)Nc2ccc3c(c2)OCO3)CC1` (stereo not shown) [CBK000480C] stands 83.1%; under `CCN1CCN(c2ccc(Nc3ccnc4cc5ccccc5cc34)cc2)CC1` [CBK261130], 79.8%. As to `O=C1COc2ccccc2C/C=C/CC2(CCN(Cc3cncnc3)CC2)CN1` [CBK292130], the viability at 28.5 h, 10 µM was found to be 112%. On the same count and under the same terms, under `Cc1cccc(CC(=O)N2CCC(Cc3cccc(-c4cccs4)c3)(C(N)=O)CC2)c1` [CBK285752] stands 107%.

`Cc1cc2ncc3c(n2n1)CC1CCC3N1Cc1ccc(F)c(F)c1` (stereo not shown) [CBK284378]: the viability at 28.5 h, 10 µM was 90.9%.

Consider `CN(C)CCN(C)C(=O)c1ccc(-c2cccc(OC(F)(F)F)c2)nc1N(C)C` [CBK106081], for which the viability at 28.5 h, 10 µM stood at 90.3%. The same measure, in the same setting: in the case of `O=C(O)CN1/C(=C\C=C2/SC(=S)N(c3ccccc3)C2=O)Sc2ccccc21` [CBK265251] it was 86.3%; in that of `O=C(CCC1CCCC1)N1CCC(O)(c2cccnc2)CC1` [CBK283603], 101%. As to `Cc1nn(C)c2nc(NCc3ccc(C(=O)N4CCCC4)cc3)sc12` [CBK307190], the viability at 28.5 h, 10 µM came to 88.6%.

Turning to `COc1cccc(CC(=O)Nc2nc(Cc3n[nH]c(=S)n3C)cs2)c1` [CBK296634], the viability at 28.5 h, 10 µM is 98.5%. On the same count and under the same terms, under `Cc1nc2cc(OCc3nc(C(=O)NCC(O)CO)co3)ccc2s1` (stereo not shown) [CBK307067] stands 102%. With `CCC(CO)Nc1nc(-c2ccc(O)cc2)cn2ccnc12` (stereo not shown) [CBK037471], the viability at 28.5 h, 10 µM worked out at 106%. On the same count and under the same terms, in the case of `CC(NC(=O)c1cn(C)c(=O)c2ccccc12)c1ccccn1` (stereo not shown) [CBK281886] it was 92.1%. Still for that read-out and setting: under `COc1cc(N)c(Cl)cc1C(=O)OCc1cc2ccc(C)cc2nc1Cl` [CBK296755] stands 89.7%; under `Cc1ccc(Cn2ncc3c(NCCCN4CCOCC4)ncnc32)cc1` [CBK077470], 94.4%; under `O=C(CCn1c(=O)oc2cc(Cl)ccc21)NCc1ccco1` [CBK269857], 95%. Still for that read-out and setting: in the case of `CCN1C(=O)/C(=C\NN=C2CCCC2)c2ccc(C3=NNC(=O)CC3)cc21` [CBK263515] it was 88.1%. `Cc1ccc2nc(C)cc(NCCO)c2c1` [CBK126909]: the viability at 28.5 h, 10 µM came out at 104%. As for `CC(=O)N1CCc2cc(-c3cc4ccccn4c3)ccc21` [CBK285224], the viability at 28.5 h, 10 µM was found to be 104%. Same read-out and setting: in the case of `Cc1ccc(C2(O)CCN(CCNC(=O)C3CCCC3)CC2)cc1` [CBK282606] it was 93.1%; in that of `O=C(C1CC1)N1CCC(c2[nH]ncc2-c2ccncc2)CC1` [CBK284238], 87.6%; in that of `CN1C(=S)SC(C)(N(O)C(=O)NC2CCCCC2)C1(C)C` (stereo not shown) [CBK008916], 110%. For `COC(=O)c1c(NC(=O)C2CC(=O)NN2C)sc2c1CCC2` (stereo not shown) [CBK269218A], the viability at 28.5 h, 10 µM came out at 89.2%. In the case of `CCNc1nc(C#N)nc(Nc2ccccc2)n1` [CBK027733], the viability at 28.5 h, 10 µM came out at 86.1%. On the same count and under the same terms, under `CC(=O)Nc1cccc(NC(=O)c2cc(-c3ccccc3)nn2-c2ccccc2)c1` [CBK296997] stands 90.1%; under `CCOc1ccc(CN(C)C(=O)Cn2nc(C(=O)O)c3ccccc3c2=O)cc1` [CBK297492], 83.8%; under `O=c1nc(NC2CCCCC2)sc2ncccc12` [CBK067024T], 92.6%. The same measure, in the same setting: under `COc1ccc([C@@]23CC[C@@H](NC(=O)c4ccc5c(c4)OC(F)(F)O5)C[C@@H]2N(C)CC3)cc1OC` [CBK076658T] stands 108%. Still for that read-out and setting: in the case of `O=C(Cc1csc(-c2ccc(F)cc2)n1)Nc1ccc(F)cc1` [CBK295177] it was 82.3%; in that of `O=C(O)c1ccc(Nc2ncnc3c2oc2ccccc23)cc1` [CBK269825C], 92%.

On to `O=C(O)c1cc(S(=O)(=O)NCc2ccc(Cl)cc2Cl)ccc1O` [CBK296924], for which the viability at 28.5 h, 10 µM amounted to 94.7%. As to `CN1CCC(C(=O)Nc2cccc(Cn3cccn3)c2)C1` (stereo not shown) [CBK281991], the viability at 28.5 h, 10 µM stood at 100%. Still for that read-out and setting: in the case of `CC(C)CC(NC(=O)c1cccnc1)c1nnc2n1CCNCC2` (stereo not shown) [CBK307149] it was 89.2%; in that of `O=C(CN1CCCC1c1ccc(Nc2ccc(F)cn2)cn1)Nc1ccc(F)cc1` (stereo not shown) [CBK285941], 106%; in that of `COc1ccc(C)cc1C(O)CN1CCOC(c2ccc(F)cc2)C1` (stereo not shown) [CBK298264], 95.5%. Same read-out and setting: in the case of `CCCc1[nH]nc(O)c1CCc1c(Cl)cccc1Cl` [CBK081403] it was 112%; in that of `COc1cc(Nc2cccc(-c3cccc(NC(C)=O)c3)n2)cc(OC)c1OC` [CBK037698], 111%; in that of `Cc1[nH]c(=O)c(C#N)cc1C(=O)N(C)Cc1cc(-c2ccncc2)no1` [CBK306859], 113%.
